≈ marks a conversion by molar mass, not a printed value. Calls of active or inactive are those of the source. The rule behind the calls is not given here.
Legend:
[1] = molecular target: T1, Phosphotyrosine protein phosphatase (Mycobacterium tuberculosis, UniProt A0A045ISB3); experiment: Inhibition of Mycobacterium tuberculosis PtpB using p-nitrophenyl phosphate as substrate preincubated for 10 mins followed by substrate addition measured every minute for 10 mins by UV-VIS spectrophotometric analysis
T1 sequence (A0A045ISB3 whole entry): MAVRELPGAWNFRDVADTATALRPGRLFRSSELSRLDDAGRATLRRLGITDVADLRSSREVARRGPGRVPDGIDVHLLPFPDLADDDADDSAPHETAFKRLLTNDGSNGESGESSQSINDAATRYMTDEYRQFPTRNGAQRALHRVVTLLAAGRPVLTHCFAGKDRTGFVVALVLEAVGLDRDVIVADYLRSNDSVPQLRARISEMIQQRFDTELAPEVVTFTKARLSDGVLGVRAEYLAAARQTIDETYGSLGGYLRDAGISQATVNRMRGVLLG

[2] = molecular target: T2, Low molecular weight protein-tyrosine phosphatase A (Mycobacterium tuberculosis, UniProt P9WIA1); experiment: Inhibition of Mycobacterium tuberculosis PtpA using p-nitrophenyl phosphate as substrate preincubated for 10 mins followed by substrate addition measured every minute for 10 mins by UV-VIS spectrophotometric analysis
T2 sequence (P9WIA1 whole entry): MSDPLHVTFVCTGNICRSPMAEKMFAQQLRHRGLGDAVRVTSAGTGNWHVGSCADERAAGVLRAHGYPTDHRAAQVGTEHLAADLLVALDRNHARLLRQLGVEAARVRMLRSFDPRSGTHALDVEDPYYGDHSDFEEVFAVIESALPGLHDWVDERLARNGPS

[3] = molecular target: T3, Tyrosine-protein phosphatase non-receptor type 1 (Homo sapiens, UniProt P18031); experiment: Inhibition of human PTP1B using p-nitrophenyl phosphate as substrate preincubated for 10 mins followed by substrate addition measured every minute for 10 mins by UV-VIS spectrophotometric analysis
T3 sequence (P18031 whole entry): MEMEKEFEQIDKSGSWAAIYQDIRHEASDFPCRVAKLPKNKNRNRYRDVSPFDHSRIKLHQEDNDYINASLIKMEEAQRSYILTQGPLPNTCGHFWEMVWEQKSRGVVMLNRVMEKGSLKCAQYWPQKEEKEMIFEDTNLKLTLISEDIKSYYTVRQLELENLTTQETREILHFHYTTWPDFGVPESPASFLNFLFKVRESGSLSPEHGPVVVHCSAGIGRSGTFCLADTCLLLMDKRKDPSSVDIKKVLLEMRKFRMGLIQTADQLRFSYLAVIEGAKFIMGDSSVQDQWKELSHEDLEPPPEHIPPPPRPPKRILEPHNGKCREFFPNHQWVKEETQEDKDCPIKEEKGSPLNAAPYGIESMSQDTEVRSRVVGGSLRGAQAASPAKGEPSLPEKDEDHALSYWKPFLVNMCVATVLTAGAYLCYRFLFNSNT

[4] = molecular target: T4, Tyrosine-protein phosphatase non-receptor type 22 (Homo sapiens, UniProt Q9Y2R2); experiment: Inhibition of LYP (unknown origin) using p-nitrophenyl phosphate as substrate preincubated for 10 mins followed by substrate addition measured every minute for 10 mins by UV-VIS spectrophotometric analysis
T4 sequence (Q9Y2R2 whole entry): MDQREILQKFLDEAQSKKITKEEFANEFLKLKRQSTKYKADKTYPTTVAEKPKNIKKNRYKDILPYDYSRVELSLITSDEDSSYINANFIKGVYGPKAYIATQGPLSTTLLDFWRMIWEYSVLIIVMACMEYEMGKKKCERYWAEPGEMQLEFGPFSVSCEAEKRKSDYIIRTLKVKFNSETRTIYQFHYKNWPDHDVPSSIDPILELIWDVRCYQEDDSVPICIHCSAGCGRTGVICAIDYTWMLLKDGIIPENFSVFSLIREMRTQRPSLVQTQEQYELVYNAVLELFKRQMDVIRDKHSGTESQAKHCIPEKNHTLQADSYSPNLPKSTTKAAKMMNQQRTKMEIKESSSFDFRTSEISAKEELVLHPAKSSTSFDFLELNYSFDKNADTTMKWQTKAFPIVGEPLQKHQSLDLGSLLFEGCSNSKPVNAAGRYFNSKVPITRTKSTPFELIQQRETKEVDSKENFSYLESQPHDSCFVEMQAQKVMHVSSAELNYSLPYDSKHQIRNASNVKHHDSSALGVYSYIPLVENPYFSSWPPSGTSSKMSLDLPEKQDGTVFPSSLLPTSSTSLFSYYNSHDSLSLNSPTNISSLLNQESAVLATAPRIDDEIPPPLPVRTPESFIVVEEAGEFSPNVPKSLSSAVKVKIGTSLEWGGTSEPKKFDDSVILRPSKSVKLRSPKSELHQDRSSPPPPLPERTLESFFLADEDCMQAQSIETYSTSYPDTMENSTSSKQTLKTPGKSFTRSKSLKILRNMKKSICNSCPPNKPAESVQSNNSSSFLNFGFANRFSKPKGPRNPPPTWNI

[5] = molecular target: T5, Tyrosine-protein phosphatase non-receptor type 12 (Homo sapiens, UniProt Q05209); experiment: Inhibition of PTP-PEST (unknown origin) using p-nitrophenyl phosphate as substrate preincubated for 10 mins followed by substrate addition measured every minute for 10 mins by UV-VIS spectrophotometric analysis
T5 sequence (Q05209 whole entry): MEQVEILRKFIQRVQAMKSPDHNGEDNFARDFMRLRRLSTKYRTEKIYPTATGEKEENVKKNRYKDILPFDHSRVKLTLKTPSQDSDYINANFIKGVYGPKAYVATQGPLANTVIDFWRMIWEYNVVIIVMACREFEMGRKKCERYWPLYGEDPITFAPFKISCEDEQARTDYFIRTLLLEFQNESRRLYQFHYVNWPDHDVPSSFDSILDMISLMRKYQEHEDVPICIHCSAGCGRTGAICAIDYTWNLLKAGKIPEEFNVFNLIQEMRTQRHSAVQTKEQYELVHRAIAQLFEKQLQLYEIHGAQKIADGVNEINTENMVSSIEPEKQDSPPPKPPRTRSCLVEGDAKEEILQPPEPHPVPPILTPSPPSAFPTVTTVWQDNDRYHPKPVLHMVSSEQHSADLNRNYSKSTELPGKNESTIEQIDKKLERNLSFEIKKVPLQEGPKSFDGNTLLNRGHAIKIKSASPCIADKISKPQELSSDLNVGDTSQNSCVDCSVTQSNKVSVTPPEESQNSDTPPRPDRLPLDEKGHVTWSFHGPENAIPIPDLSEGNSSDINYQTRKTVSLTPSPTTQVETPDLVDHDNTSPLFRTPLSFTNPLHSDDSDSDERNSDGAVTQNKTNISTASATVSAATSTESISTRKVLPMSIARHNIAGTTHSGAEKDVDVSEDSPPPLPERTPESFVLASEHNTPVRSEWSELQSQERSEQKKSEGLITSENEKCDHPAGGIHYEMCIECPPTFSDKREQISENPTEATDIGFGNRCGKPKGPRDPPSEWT

[6] = molecular target: T6, Phosphotyrosine protein phosphatase (Mycobacterium tuberculosis) (UniProt A0A045ISB3); experiment: Binding affinity to Mycobacterium tuberculosis PtpB assessed as sequence coverage level at 100 uM preincubated for 10 mins before trypsin addition by mass spectrometry based peptide mass fingerprint assay (reference value: 92%)
T6 sequence (whole entry): T1 sequence (A0A045ISB3 whole entry)

[7] = molecular target: T6, Phosphotyrosine protein phosphatase (Mycobacterium tuberculosis); experiment: Time independent inhibition of Mycobacterium tuberculosis PtpB at 0.2 uM pre-incubated for 0 to 10 mins before p-nitrophenyl phosphate substrate addition
[8] = test system: Mycobacterium tuberculosis; experiment: Antitubercular activity against Mycobacterium tuberculosis H37Ra ATCC 25177 after 7 days by resazurin microtiter assay; type: functional; settings: H37Ra ATCC 25177, 168 h
[9] = molecular target: T1, Phosphotyrosine protein phosphatase; experiment: Binding affinity to Mycobacterium tuberculosis PtpB by fluorescence based assay
[10] = molecular target: T6, Phosphotyrosine protein phosphatase (Mycobacterium tuberculosis); experiment: Reversible inhibition of Mycobacterium tuberculosis PtpB using p-nitrophenyl phosphate as substrate assessed as enzyme recovery at 10 times IC50 preincubated for 10 mins followed by 100-fold dilution; parameters: scale not given: the % may be the effect or the level left
[11] = Cytotoxicity against human THP1 cells after 72 hrs by MTT assay; type: cell-based; settings: THP-1 cells
[12] = molecular target: T6, Phosphotyrosine protein phosphatase (Mycobacterium tuberculosis); experiment: Binding affinity to Mycobacterium tuberculosis PtpB assessed as Stern-Volmer quenching constant by UV-VIS spectrophotometric analysis
[13] = molecular target: T6, Phosphotyrosine protein phosphatase (Mycobacterium tuberculosis); experiment: Competitive inhibition of Mycobacterium tuberculosis PtpB using p-nitrophenyl phosphate as substrate up to 0.3 uM preincubated for 10 mins followed by substrate addition measured every minute for 10 mins by Michaelis-Menten plot analysis
[14] = molecular target: T6, Phosphotyrosine protein phosphatase (Mycobacterium tuberculosis); experiment: Binding affinity to Mycobacterium tuberculosis PtpB assessed as fluorescence quenching at 0.1 to 3.8 uM by spectropolarimetry
[15] = molecular target: T1, Phosphotyrosine protein phosphatase; experiment: Inhibition of Mycobacterium tuberculosis PtpB using p-nitrophenyl phosphate as substrate preincubated for 10 mins followed by substrate addition measured every minute for 10 mins by Michaelis-Menten plot analysis
[16] = molecular target: T6, Phosphotyrosine protein phosphatase (Mycobacterium tuberculosis); experiment: Binding affinity to Mycobacterium tuberculosis PtpB assessed as binding constant by fluorescence based assay
[17] = test system: Mycobacterium tuberculosis; experiment: Antitubercular activity against Mycobacterium tuberculosis H37Ra ATCC 25177 infected in human THP1 cells assessed as reduction in CFU at 13.2 uM after 72 hrs; type: functional, organism-based
[18] = molecular target: T1, Phosphotyrosine protein phosphatase; experiment: Binding affinity to Mycobacterium tuberculosis PtpB by UV-VIS spectrophotometric analysis
[19] = molecular target: T6, Phosphotyrosine protein phosphatase (Mycobacterium tuberculosis); experiment: Binding affinity to Mycobacterium tuberculosis PtpB assessed as protection against proteolytic cleavage at 100 to 400 uM preincubated for 10 mins before trypsin addition by mass spectrometry

Structure (SMILES)	IC50 [1] [nM]	Ki [1] [nM]	IC50 [2] [nM]	IC50 [3] [nM]	IC50 [4] [nM]	IC50 [5] [nM]	Activity [6] [%]	inhibition [7]	MIC [8] [µg/mL]	Kd [9] [nM]	Activity [10] [%]	CC50 at 72 h [11] [µg/mL]	Ka [12] [×10⁶ /M]	inhibition [13]	Activity [14]	Ki [15] [nM]	Ka [16] [×10⁶ /M]	Activity [17]	Kd [18] [nM]	Activity [19]
CC(C)=CCc1c(O)ccc(C(=O)[C@H]2[C@@H](c3c(O)cc(/C=C/c4ccc(O)cc4O)cc3O)C=C(C)C[C@@H]2c2ccc(O)cc2O)c1O	1900	1600	–	–	–	–	–	–	–	–	–	–	–	–	–	–	–	–	–	–
CC(C)=CCc1c(O)ccc(C(=O)[C@H]2[C@@H](c3c(O)cc(-c4cc5ccc(O)cc5o4)cc3O)C=C(C)C[C@@H]2c2ccc(O)cc2O)c1O [CHALCOMORACIN]	1430	–	2430	1940	7290	8520	–	–	–	–	–	–	–	–	–	–	–	–	–	–
Oc1cc(O)cc(/C=C/c2ccc(O)cc2O)c1 [OXYRESVERATROL]	–	–	67200	27100	31500	> 100000	–	–	–	–	–	–	–	–	–	–	–	–	–	–
CC(C)=CCc1c(O)ccc(C(=O)[C@@H]2[C@@H](c3ccc(O)cc3O)CC(C)=C[C@H]2c2c(O)cc(O)c3c(=O)c(CC=C(C)C)c(-c4ccc(O)cc4O)oc23)c1O	360	–	1490	2540	11800	5220	93	Active	32 (≈ 42.1 µM)	850	40	20.2 (≈ 26.6 µM)	1	Active	Active	200	1.2	inactive	1000	Active

Reference: ChEMBL document CHEMBL4251612, “Naturally occurring Diels-Alder-type adducts from Morus nigra as potent inhibitors of Mycobacterium tuberculosis protein tyrosine phosphatase B” (Eur J Med Chem, 2018)
